# Data: patent US6455242B1, “Color photographic element containing speed improving compound” (Eastman Kodak Company, priority 1998, dated 2002)
# Assay: Permanent solvent physical constant beta
# Assay type: physicochemical
# Settings: permanent solvent constant as defined by Kamlet et al.
# Source text: The materials of the invention can be added to a mixture containing silver halide before coating or, more suitably, be mixed with the silver halide just prior to or during coating. In either case, additional components like couplers, […], surfactants, hardeners and other materials that are typically present in such solutions may also be present at the same time. The materials of the invention are not water-soluble and cannot be added directly to the solution. They may be added directly if dissolved in an organic water miscible solution such as methanol, acetone or the like or more preferably as a dispersion. A dispersion incorporates the material in a stable, finely divided state in a hydrophobic organic solvent (often referred to as a coupler solvent or permanent solvent) that is stabilized by suitable surfactants and surface active agents usually in combination with a binder or matrix such as gelatin. The dispersion may contain one or more permanent solvents that dissolve the material and maintain it in a liquid state. Some examples of suitable permanent solvents are tricresylphosphate, N,N-diethyllauramide, N,N-dibutyllauramide, p-dodecylphenol, dibutylphthalate, di-n-butyl sebacate, N-n-butylacetanilide, 9-octadecen-1-ol, ortho-methylphenyl benzoate, trioctylamine and 2-ethylhexylphosphate. Permanent solvents can also be described in terms of physical constants such as alpha, beta and pi* as defined by M. J. Kamlet, J-L. M. Abboud, M. H. Abraham and R. W. Taft, J. Org Chem, 48, 2877(1983). The preferred permanent solvents used with the materials of the invention are those with ClogP of 5.0 or greater and beta values of 0.4 or greater or more preferably, beta values of 0.5 or greater. Preferred classes of solvents are carbonamides, phosphates, alcohols and esters. When a solvent is present, it is preferred that the weight ratio of compound to solvent be at least 1 to 0.5, or most preferably, at least 1 to 1. […]
row,beta,Compound
1,0.71,CCCCCCCC/C=C\CCCCCCCCO [(Z)-9-octadecen-1-ol]
2,0.93,"CCCCCCCCCCCC(=O)N(CCCC)CCCC [N,N-dibutyllauramide]"
3,0.43,Cc1ccccc1OC(=O)c1ccccc1 [ortho-methylphenyl benzoate]
